Assay results reported in PubChem BioAssay (NCI).
Several values for one entry are separate records, joined by “and”; a condition that tells them apart may be missing. Equal entries are not always repeated.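 Values below derive from 48-hour exposures of cells grown in 96-well plates, with endpoints linearly interpolated between the two concentrations bracketing the appropriate inhibition level. At the GI50, growth is halved. TGI marks complete inhibition of growth.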

Legend:
Assay in all cases: NCI tumour cell line growth inhibition, 48 h
DLD-1 colon = system: DLD-1 colon
SNB-78 CNS = system: SNB-78 CNS
HOP-18 NSCLC = system: HOP-18 NSCLC
M19-MEL melanoma = system: M19-MEL melanoma
LXFL 529 NSCLC = system: LXFL 529 NSCLC
RXF-631 renal = system: RXF-631 renal
XF 498 CNS = system: XF 498 CNS
DMS 114 small cell lung = system: DMS 114 small cell lung
MDA-N = system: MDA-N

Row | Structure (SMILES) | TGI (DLD-1 colon) [µM] | TGI (SNB-78 CNS) [µM] | TGI (HOP-18 NSCLC) [µM] | TGI (M19-MEL melanoma) [µM] | TGI (LXFL 529 NSCLC) [µM] | TGI (XF 498 CNS) [µM] | TGI (DMS 114 small cell lung) [µM] | further results
1 | CCC(C)(C)C(=O)O[C@H]1C[C@@H](C)C=C2C=C[C@H](C)[C@H](CC[C@@H]3C[C@@H](O)CC(=O)O3)[C@H]21 | > 30 | > 30 | > 30 | > 30 | > 30 | > 30 | > 30 | TGI (RXF-631 renal): > 30 µM
2 | O=S(=O)(/C=C/c1ccc(Cl)cc1Cl)Cc1ccccc1CS(=O)(=O)/C=C/c1ccc(Cl)cc1Cl | > 100 | > 100 |  | > 100 | > 100 | > 100 | > 100 | 
3 | CC1=NN(c2ccccc2)C(=O)C1N=Nc1ccc([As](=O)(O)O)c(O)c1 (stereo unspecified) |  |  |  |  |  |  |  | TGI (MDA-N): > 100 µM
4 | CCOC(C)C(/C=N/NC(N)=S)=NNC(N)=S (stereo unspecified) | > 100 | > 100 |  | > 100 | > 100 |  |  | 
5 | O=c1cccccc1NCCOCCNc1cccccc1=O | > 100 | > 100 | > 100 | > 100 | > 100 |  | > 100 | 
6 | O=c1/c(=C/c2cccc([N+](=O)[O-])c2)sc2nc3ccccc3n12 | > 100 | > 100 |  | > 100 | > 100 | > 100 | > 100 | 
7 | CCC[CH2][Sn]1([CH2]CCC)[O]C(=O)c2cc(I)cc(I)c2[O]1 | 2.42 | 2.37 | 3.03 | 2.19 | 1.33 |  | 1.19 | GI50 (DLD-1 colon): 1.15 µM; GI50 (SNB-78 CNS): 0.536 µM; GI50 (HOP-18 NSCLC): 1.62 µM; GI50 (M19-MEL melanoma): 1 µM; GI50 (LXFL 529 NSCLC): 0.247 µM; GI50 (DMS 114 small cell lung): 0.303 µM
8 | COc1cccc(C2c3cc4c(cc3OC(C)(O)C2C)OCO4)c1O (stereo unspecified) |  |  |  |  |  |  |  | TGI (MDA-N): 4.69 µM
9 | COC(=O)C1=C2CCC(=O)[C@@]2(C)C(OC(C)=O)C=CC1 (stereo partly specified) | > 100 | > 100 |  | > 100 | > 100 | 92.9 | > 100 | TGI (RXF-631 renal): 54 µM
10 | Cc1[nH]c2ccccc2c1C1Cc2ccccc2N1C(=O)/C=C/C=C/c1ccccc1 (stereo unspecified) | > 100 | > 100 |  | > 100 | > 100 |  | > 100 | 
11 | CS(=O)(=O)NNS(=O)(=O)c1cccc([N+](=O)[O-])c1 | > 100 |  |  | > 100 | > 100 | > 100 | > 100 | TGI (RXF-631 renal): > 100 µM
12 | CC1(C)COC(C23C4C5C2C2C3C4C52I)=N1 (stereo unspecified) | > 100 | > 100 | > 100 | > 100 | > 100 | > 100 | > 100 | 
13 | C=C1C(=O)O[C@@H]2C[C@@]3(C)CCC[C@H](C)C3=C[C@H]12 |  |  |  |  |  |  |  | TGI (MDA-N): 16.6 µM
14 | COc1ccc(C(=O)OCC2OC(n3cnc4c(=S)nc[nH]c43)C(OC(=O)c3ccc(OC)cc3)C2OC(=O)c2ccc(OC)cc2)cc1 (stereo unspecified) | > 100 |  |  | > 100 | > 100 |  | > 100 | 
15 | [O-]c1c2c(nn1-c1ccccc1)c1ccccc1c[n+]2Cc1ccccc1 | > 100 | > 100 | > 100 | > 100 | > 100 | > 100 | > 100 | TGI (RXF-631 renal): > 100 µM
16 | CC1CC2(C)ON=C(c3ccccc3)N2c2ccccc2S1 (stereo unspecified) |  |  |  |  |  |  |  | GI50 (MDA-N): 34.2 µM
17 | COc1ccc(CCN2C(=O)C=CC2=O)cc1OC |  |  |  |  |  |  |  | TGI (MDA-N): 33.5 µM
18 | CCCCCCCCCCCCCC(=O)O[C@H]1CC[C@H](NC(=O)[C@H](OC)[C@H](O)[C@@H](O)[C@H](O)/C=C/C(C)C)C(=O)NC1 |  |  | > 51.2 | 8.23 | 7.26 | 0.305 |  | GI50 (MDA-N): 0.0165 µM; TGI (MDA-N): 44.7 µM and 12.1 µM; GI50 (HOP-18 NSCLC): > 51.2 µM; GI50 (M19-MEL melanoma): 0.0245 µM; GI50 (LXFL 529 NSCLC): 0.00512 µM; GI50 (DMS 114 small cell lung): < 0.001 µM
19 | CC(=O)OC(/C=C1/C=CC(=O)O1)COC(=O)c1ccccc1 (stereo unspecified) | > 31.2 | > 31.2 | > 31.2 | > 31.2 | > 31.2 | > 31.2 | > 31.2 | 
